Earlier results, collected in patent US20170119704A1, “TREATMENT OF COGNITIVE IMPAIRMENT” (Ovid Therapeutics Inc., priority 2015, published 2017).

Conditions: in vivo

## CN(C)CCO/N=C(/C=C/c1ccc(O)cc1)c1ccccc1F [Eplivanserin, (1Z,2E)-1-(2-fluorophenyl)-3-(4-hydroxyphenyl)-prop-2-en-1-one-O-(2-dimethylaminoethyl)-oxime]
  absorption (well absorbed): > 70%
